From patent US20260216294A1, “BETA 2-ADRENERGIC RECEPTOR AGONISTS FOR TREATMENT OR PREVENTION OF MUSCLE WASTING” (ATROGI AB, priority 2023, published 2026)

Key:
L6-myotubes [1] = experiment: Measurement of intracellular cAMP levels in differentiated L6-myotubes (Biological Example 3); format: cell-based; details: for Emax at 10 µM: 0.25 h
Summary of the method: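 Intracellular cAMP quantified by AlphaScreen after ethanol extraction and lysis of L6 myotubes. Cells were serum-starved overnight, then exposed for 15 min to compound (final 1×10^−5 M) or isoprenaline in IBMX-containing (1 mM) HBSS buffer, pH 7.4.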

L6-myotubes [2] = experiment: Glucose uptake in differentiated L6-myotubes (Biological Example 2); format: cell-based; details: for Emax at 10 µM: read-out: Biological example 2 (GU)
Summary of the method: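 Uptake was quantified as radioactivity in 0.2 M NaOH lysates after a 10 min pulse of 50 nM ^3H-2-deoxyglucose. The pulse followed two agonist exposures at 1×10^−5 M final (isoprenaline or test compound): 1 h 40 min, then 20 min in glucose-free medium after washing. L6 myotubes had been starved overnight in medium with 0.5% fatty-acid-free BSA.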

[3] = intracellular cAMP, compound at 10 μM relative to isoproterenol at 10 μM
[4] = glucose uptake, compound at 10 μM relative to isoproterenol at 10 μM
[5] = intracellular cAMP in differentiated L6-myotubes, compound at 10 μM, activity relative to isoproterenol at 10 μM
[6] = glucose uptake in differentiated L6-myotubes, compound at 10 μM, activity relative to isoproterenol at 10 μM

Structure (SMILES)	Emax at 10 µM (L6-myotubes [1]; [3])	Emax at 10 µM (L6-myotubes [2]; [4])	Emax at 10 µM (L6-myotubes [1]; [5])	Emax at 10 µM (L6-myotubes [2]; [6])	further results
CC1(C)CC[C@H]([C@@H](O)c2cccc(O)c2)N1 [Compound 111, m-{(S)-[(R)-5,5-dimethyl-2-pyrrolidinyl] hydroxymethyl}phenol]	< 25%	50 to 75%	–	–	–
CCCCNCC(O)c1cc(F)cc(F)c1 (stereo not shown) [Compound 55, 2-(butylamino)-1-(3,5-difluorophenyl)-1-ethanol]	< 25%	50 to 75%	–	–	–
CO[C@H]1CC[C@H](C[C@H]2CC[C@H]([C@@H](O)c3cccc(F)c3)N2)CC1 [Compound 334, (S)-[(2R,5R)-5-{[(1r,4R)-4-methoxycyclohexyl]methyl}-2-pyrrolidinyl] (m-fluorophenyl)methanol]	–	–	< 25%	25 to 50%	–
CC12CCC([C@H](O)c3ccccc3Cl)(CC1)N2 [Compound 195, (R)-(o-chlorophenyl)(4-methyl-7-azabicyclo[[2.2.1]]hept-1-yl)methanol]	< 25%	> 75%	–	–	–
CC(C)(C[C@H]1CC[C@@H](S(N)(=O)=O)CC1)NC[C@H](O)c1cncc(F)c1 [Compound 519, (1S,4s)-4-{2-[(R)-2-(5-fluoro-3-pyridyl)-2-hydroxyethylamino]-2-methylpropyl} cyclohexanesulfonamide]	–	–	< 25%	> 75%	–
CC(C)(C[C@H]1CC[C@@H](C(=O)O)CC1)NC[C@H](O)c1cccc(F)c1 [Compound 331, (1S,4s)-4-{2-[(R)-2-(m-fluorophenyl)-2-hydroxyethylamino]-2-methylpropyl} cyclohexanecarboxylic acid]	–	–	< 25%	25 to 50%	–
CC(C)(NC[C@H](O)c1cccc(F)c1)[C@H]1CC[C@@H](OCC(=O)O)CC1 [Compound 408]	–	–	< 25%	50 to 75%	–
CC(C)(NC[C@H](O)c1cccc(F)c1)[C@H]1CC[C@@H](O)CC1 [Compound 284, (R)-1-(m-fluorophenyl)-2-{1-methyl-1-[(1s,4S)-4-hydroxycyclohexyl]ethylamino}-1-ethanol]	–	–	< 25%	50 to 75%	–
Oc1ccc(C(O)CNCC2CC2)cc1 (stereo not shown) [Compound 3, p-{2-[(cyclopropylmethyl)amino]-1-hydroxyethyl}phenol]	< 25%	50 to 75%	–	–	–
O[C@@H](CNCCC[C@H]1CC[C@H](O)CC1)c1cccc(F)c1 [Compound 303, (R)-1-(m-fluorophenyl)-2-{3-[(1r,4S)-4-hydroxycyclohexyl]propylamino}-1-ethanol]	–	–	< 25%	50 to 75%	–
CC(C)(C[C@H]1CC[C@H](NC(=O)C(F)(F)F)CC1)NC[C@H](O)c1cccc(F)c1 [Compound 433]	–	–	–	–	Biological example 3 (CAMP) (L6-myotubes [1]; [5]): + (if it is between 50 and 25% it is denoted with +); Biological example 2 (GU) (L6-myotubes [2]; [6]): +++ (If a compound at 10 μM shows activity of more than 75% of that of isoproterenol at 10 μM, the activity is denoted with +++)
CC(C)(NC[C@H](O)c1cncc(F)c1)[C@H]1CC[C@@H](OCc2ccccc2)CC1 [Compound 282, (R)-1-(5-fluoro-3-pyridyl)-2-{1-methyl-1-[(1s,4S)-4-(benzyloxy)cyclohexyl]ethylamino}-1-ethanol]	–	–	< 25%	50 to 75%	–
CC(C)(C)NCC(O)c1ccncc1O (stereo not shown) [Compound 134, 4-[2-(tert-butylamino)-1-hydroxyethyl]-3-pyridinol]	< 25%	> 75%	–	–	–
O[C@H](c1cncc(F)c1)C12CCC(CCCc3ccccc3)(CC1)N2 [Compound 532, (R)-(5-fluoro-3-pyridyl){4-(3-phenylpropyl)-7-azabicyclo[[2.2.1]]hept-1-yl}methanol]	–	–	25 to 50%	50 to 75%	–
CCCCNCC(O)c1cc(Cl)c(N)c(Cl)c1 (stereo not shown) [Compound 29, 1-(4-amino-3,5-dichlorophenyl)-2-(butylamino)-1-ethanol]	25 to 50%	> 75%	–	–	–
CC(=O)N[C@H]1CC[C@@H](CC(C)(C)NC[C@@H](O)c2cccc(C#N)n2)CC1 [Compound 423]	–	–	< 25%	< 25%	–
CCC[C@@H]1CC[C@H](C(O)c2cccc(O)c2)N1 (stereo in doubt) [Compound 57, m-{(R)-[(2R,5R)-5-propyl-2-pyrrolidinyl] hydroxymethyl}phenol]	–	–	–	–	Biological example 3 (CAMP) (L6-myotubes [1]; [3]): ++ (if it is between 75 and 50% it is denoted with ++); Biological example 2 (GU) (L6-myotubes [2]; [4]): +++ (If a compound at 10 μM shows activity of more than 75% of that of isoproterenol at 10 μM, the activity is denoted with +++)
O[C@H](c1cccc(F)c1)C12CCC(COCc3ccc(OC(F)(F)F)cc3)(CC1)N2 [Compound 488]	–	–	< 25%	< 25%	–
CCCC(C)NCC(O)c1cccc(O)c1 (stereo not shown) [Compound 14, 1-(m-hydroxyphenyl)-2-(1-methylbutylamino)-1-ethanol]	< 25%	> 75%	–	–	–

Structure (SMILES)	Emax at 10 µM (L6-myotubes [1]; [3])	Emax at 10 µM (L6-myotubes [2]; [4])	Emax at 10 µM (L6-myotubes [1]; [5])	Emax at 10 µM (L6-myotubes [2]; [6])	further results
CC(C)(C[C@H]1CC[C@H](NS(=O)(=O)C2CC2)CC1)NC[C@H](O)c1cccc(F)c1 [Compound 496]	–	–	< 25%	50 to 75%	–
O[C@@H](c1cccc(F)c1)[C@H]1CC[C@H](Cc2ccc(Cl)cc2)N1 [Compound 394, (S)-{(2R,5R)-5-[(p-chlorophenyl)methyl]-2-pyrrolidinyl}(m-fluorophenyl)methanol]	–	–	< 25%	50 to 75%	–
CC(C)(NC[C@H](O)c1cncc(F)c1)[C@H]1CC[C@@H](C(=O)O)CC1 [Compound 323, (1S,4s)-8-[(R)-2-(5-fluoro-3-pyridyl)-2-hydroxyethylamino]-7-hydroxy-p-menthan-7-one]	–	–	50 to 75%	25 to 50%	–
CC12CCC([C@@H](O)c3ccccc3Cl)(CC1)N2 [Compound 194, (S)-(o-chlorophenyl)(4-methyl-7-azabicyclo[[2.2.1]]hept-1-yl)methanol]	< 25%	> 75%	–	–	–
CCCCNC[C@H](O)c1cnc(N)nc1 [Compound 89, (R)-1-(2-amino-5-pyrimidinyl)-2-(butylamino)-1-ethanol]	< 25%	50 to 75%	–	–	–
O=C(N[C@H]1CC[C@@H](CNC[C@H](O)c2cccc(F)c2)CC1)c1ccccc1 [Compound 316]	–	–	< 25%	50 to 75%	–
CCCC12CCC([C@H](O)c3cccc(F)c3)(CC1)N2 [Compound 183, (R)-(m-fluorophenyl)(4-propyl-7-azabicyclo[[2.2.1]]hept-1-yl)methanol]	25 to 50%	50 to 75%	–	–	–
CC(C)(C[C@H]1CC[C@H](N)CC1)NC[C@H](O)c1cncc(F)c1 [Compound 359, (R)-2-{1,1-dimethyl-2-[(1r,4R)-4-aminocyclohexyl]ethylamino}-1-(5-fluoro-3-pyridyl)-1-ethanol]	–	–	< 25%	> 75%	–
CC(C)(C)NC[C@H](O)c1ccc(Cl)cn1 [Compound 147, (S)-2-(tert-butylamino)-1-(5-chloro-2-pyridyl)-1-ethanol]	< 25%	25 to 50%	–	–	–
CC12CCC([C@@H](O)c3cccc(Cl)c3)(CC1)N2 [Compound 196, (S)-(m-chlorophenyl)(4-methyl-7-azabicyclo[[2.2.1]]hept-1-yl)methanol]	< 25%	25 to 50%	–	–	–
CC(C)(C[C@H]1CC[C@@H](N)CC1)NC[C@H](O)c1cccc(F)c1 [Compound 456]	–	–	< 25%	> 75%	–
CCC12CCC([C@@H](O)c3cccc(F)c3)(CC1)N2 [Compound 182, (S)-(m-fluorophenyl)(4-propyl-7-azabicyclo[[2.2.1]]hept-1-yl)methanol]	< 25%	< 25%	–	–	–
CC(C)(C[C@H]1CC[C@@H](NS(=O)(=O)C(F)(F)F)CC1)NC[C@H](O)c1cccc(F)c1 [Compound 493, (R)-2-{1,1-dimethyl-2-[(1s,4S)-4-(trifluoromesylamino)cyclohexyl]ethylamino}-1-(m-fluorophenyl)-1-ethanol]	–	–	< 25%	25 to 50%	–
CCC[C@H]1CC[C@@H]([C@H](O)c2cccc(F)c2)N1 [Compound 130, (R)-[(2S,5S)-5-propyl-2-pyrrolidinyl](m-fluorophenyl)methanol]	< 25%	25 to 50%	–	–	–
CO[C@H]1CC[C@H](C[C@]2(C)CC[C@H]([C@@H](O)c3cccc(F)c3)N2)CC1 [Compound 363, (S)-[(2R,5S)-5-methyl-5-{[(1r,4S)-4-methoxycyclohexyl]methyl}-2-pyrrolidinyl](m-fluorophenyl)methanol]	–	–	< 25%	> 75%	–
Oc1ccc(C(O)CNCCC2CCCCC2)cc1 (stereo not shown) [Compound 16, 2-(2-cyclohexylethylamino)-1-(p-hydroxyphenyl)-1-ethanol]	< 25%	25 to 50%	–	–	–
CC(=O)N[C@H]1CC[C@@H](C[C@@H]2CC[C@H]([C@H](O)c3cccc(F)c3)N2)CC1 [Compound 484]	–	–	< 25%	50 to 75%	–
Oc1ccc(C(O)CNC2CCCC2)cc1 (stereo not shown) [Compound 10, p-[2-(cyclopentylamino)-1-hydroxyethyl]phenol]	< 25%	50 to 75%	–	–	–
CCCCNC[C@H](O)c1ccccc1F [Compound 79, (R)-2-(butylamino)-1-(o-fluorophenyl)-1-ethanol]	< 25%	> 75%	–	–	–
